Source: patent publication US20030018166A1 (priority 2000, published 2003)
“Also recorded” adds a separate entry of the source. Like-named read-outs stand apart in the source and are kept apart here.

Columns and labels:
[1] = molecular target: recombinant Icl (isocitrate lyase) (Mycobacterium tuberculosis, UniProt P9WKK7); experiment: biochemical; assay type: biochemical, M. tuberculosis (CSU93); conditions: for inhibit the activity to approximately: 5 mM inhibitor concentration; for Ki: read-out: inhibition constants
Sequence of recombinant Icl (isocitrate lyase) (P9WKK7 whole entry): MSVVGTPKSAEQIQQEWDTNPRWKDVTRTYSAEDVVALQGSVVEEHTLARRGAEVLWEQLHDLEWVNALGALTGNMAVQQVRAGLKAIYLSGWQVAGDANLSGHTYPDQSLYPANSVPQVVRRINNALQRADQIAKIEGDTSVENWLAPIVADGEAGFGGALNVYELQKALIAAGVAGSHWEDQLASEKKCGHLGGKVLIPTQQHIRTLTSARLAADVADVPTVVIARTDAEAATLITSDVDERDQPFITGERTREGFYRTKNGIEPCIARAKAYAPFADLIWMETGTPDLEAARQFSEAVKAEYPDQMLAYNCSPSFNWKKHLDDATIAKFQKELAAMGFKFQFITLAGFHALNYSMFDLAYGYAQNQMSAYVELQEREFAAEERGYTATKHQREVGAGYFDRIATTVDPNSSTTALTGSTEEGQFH

[2] = tested on: wild type M. smegmatis mc^2155; assay type: cell-based; conditions: discs 30 mM and 60 mM
[3] = tested on: O=C(O)CC(C(=O)O)C(O)C(=O)O; experiment: purified protein, by the assay type

Row | Molecule | inhibitory effect on Icl activity [1] | Ki [1] [µM] | further results
1 | O=C(COP(=O)(O)O)[C@@H](O)[C@H](O)[C@H](O)COP(=O)(O)O [fructose-1,6-bisphosphate] | no inhibitory effect |  | 
2 | O=C(O)[C@H](O)[C@@H](O)[C@H](O)[C@H](O)COP(=O)(O)O [6-phosphogluconate] | no inhibitory effect |  | 
3 | O=C(O)[C@H](O)COP(=O)(O)O [3-Phosphoglycerate] | no inhibitory effect |  | 
4 | O=C(O)CC(=O)O [malonic acid] | no inhibitory effect |  | 
5 | O=C(O)C(=O)O [Oxalate] |  |  | inhibit the activity to approximately [1]: approximately 50%
6 | C=C(CC(=O)O)C(=O)O [Itaconate] |  | 120 | 
7 | O=C(O)CC[N+](=O)[O-] [3-nitropropionate] |  | 3 | effect on growth, inhibition zone around disc ([2]; grown on acetate): restricted to growth on acetate; also recorded: inhibitory; effect on growth, inhibition zone around disc ([2]; grown on glucose): not observed; also recorded: no effect
8 | O=C(O)CCC(=O)O [succinate] |  |  | inhibitory effect on the recombinant enzyme [1]: did not reveal any inhibitory effect
9 | O=C(O)C(=O)CBr [bromopyruvate, 3-bromopyruvate] |  | 120 | effect on growth, inhibition zone around disc ([2]; grown on glucose): no effect
10 | C=C1CC(=O)OC1=O [itaconic anhydride] |  | 190 | 
11 | recombinant AceA (isocitrate lyase) (Mycobacterium tuberculosis CDC1551) |  |  | Km ([3]; other: Tricine-HCl buffer at pH 7.5, pH 7.5): 1.3 mM
12 | O=C(O)CC(O)C(=O)O (stereo not shown) [malate] |  |  | inhibit the activity to approximately [1]: approximately 50%
13 | recombinant Icl (isocitrate lyase) (Mycobacterium tuberculosis H37Rv) |  |  | Km ([3]; other: Hanes-Woolf plot): 0.145 mM
